From patent US11331299B2, “Medicinal use of serrulatane diterpenes” (The University of Sydney, priority 2016, dated 2022)
Read-outs that look alike come from different tables or passages of the source.

Tested on: 280 human cancer cell lines
Assay: OncoPanel cell proliferation assay (10-day)
Format: cell-based
Details: Homo sapiens; for IC50: read-out: Cell Count IC50; for EC50: read-out: Cell Count EC50
[1] = SW872, SW872, Soft Tissue - Sarcoma
[2] = SW 954, SW954, Female GU - Vulva
[3] = SW982, SW982, Soft Tissue - Sarcoma
[4] = SW1353, SW1353, Soft Tissue - Osteosarcoma
[5] = TE 125.T, Soft Tissue - Sarcoma
[6] = TE 381.T, Soft Tissue - Sarcoma
[7] = U2OS, Soft Tissue - Osteosarcoma
[8] = U-118-MG, U-118 MG, CNS - Glioma
[9] = VA-ES-BJ, Soft Tissue - Sarcoma
[10] = WM 266-4, WM-266-4, Skin (Melanoma)

SMILES: CC(C)=CCC[C@H](C)[C@@H]1CC[C@@H](C)c2c1cc(C)c(O)c2O [Compound 4, 7,8-dihydroxyserrulat-14-ene]
- GI50 (SW837, SW837, Colon, read-out: Cell Count GI50): 18.7 µM
- IC50 (SW837, SW837, Colon): 18.9 µM
- EC50 [1]: 4.39 µM
- GI50 (SW872, SW872, Soft Tissue - Sarcoma, read-out: Cell Count GI50): 4.38 µM
- IC50 [1]: 4.39 µM
- EC50 (SW900, SW900, Lung - SCLC): 23.3 µM
- GI50 (SW900, SW900, Lung - SCLC, read-out: Cell Count GI50): 23.1 µM
- IC50 (SW900, SW900, Lung - SCLC): 23.3 µM
- EC50 (SW948, SW948, Colon): 29.7 µM
- GI50 (SW948, SW948, Colon, read-out: Cell Count GI50): > 30 µM
- IC50 (SW948, SW948, Colon): > 30 µM
- EC50 [2]: 21.7 µM
- GI50 (SW 954, SW954, Female GU - Vulva, read-out: Cell Count GI50): 21.6 µM
- IC50 [2]: 21.7 µM
- EC50 [3]: 7.29 µM
- GI50 (SW982, SW982, Soft Tissue - Sarcoma, read-out: Cell Count GI50): 7.26 µM
- IC50 [3]: 7.3 µM
- EC50 (SW1088, SW1088, CNS - Glioma): 8.77 µM
- GI50 (SW1088, SW1088, CNS - Glioma, read-out: Cell Count GI50): 8.69 µM
- IC50 (SW1088, SW1088, CNS - Glioma): 8.77 µM
- EC50 [4]: 4.15 µM
- GI50 (SW1353, SW1353, Soft Tissue - Osteosarcoma, read-out: Cell Count GI50): 4.14 µM
- IC50 [4]: 4.15 µM
- EC50 (SW1417, SW1417, Colon): > 30 µM
- GI50 (SW1417, SW1417, Colon, read-out: Cell Count GI50): 29.3 µM
- IC50 (SW1417, SW1417, Colon): > 30 µM
- EC50 (SW1463, SW1463, Colon): 29.4 µM
- GI50 (SW1463, SW1463, Colon, read-out: Cell Count GI50): 29.5 µM
- IC50 (SW1463, SW1463, Colon): 29.6 µM
- EC50 (SW1783, SW1783, CNS - Glioma): 12.3 µM
- GI50 (SW1783, SW1783, CNS - Glioma, read-out: Cell Count GI50): 12.1 µM
- IC50 (SW1783, SW1783, CNS - Glioma): 12.3 µM
- EC50 (SW-403, SW403, Colon): > 30 µM
- GI50 (SW-403, SW403, Colon, read-out: Cell Count GI50): > 30 µM
- IC50 (SW-403, SW403, Colon): > 30 µM
- EC50 (SW-620, SW620, Colon): 11.3 µM
- GI50 (SW-620, SW620, Colon, read-out: Cell Count GI50): 11.3 µM
- IC50 (SW-620, SW620, Colon): 11.3 µM
- EC50 (SiHa, Female GU - Cervix): 11.3 µM
- GI50 (SiHa, Female GU - Cervix, read-out: Cell Count GI50): 13.2 µM
- IC50 (SiHa, Female GU - Cervix): 13.5 µM
- EC50 (T24, Bladder): 12.2 µM
- GI50 (T24, Bladder, read-out: Cell Count GI50): 12.2 µM
- IC50 (T24, Bladder): 12.2 µM
- EC50 (T47D, Breast): 3.28 µM
- GI50 (T47D, Breast, read-out: Cell Count GI50): 2.92 µM
- IC50 (T47D, Breast): 3.28 µM
- EC50 (T98G, CNS - Glioma): 24.5 µM
- GI50 (T98G, CNS - Glioma, read-out: Cell Count GI50): 24.5 µM
- IC50 (T98G, CNS - Glioma): 24.5 µM
- EC50 (TCC-SUP, TCCSUP, Bladder): 8.91 µM
- GI50 (TCC-SUP, TCCSUP, Bladder, read-out: Cell Count GI50): 8.67 µM
- IC50 (TCC-SUP, TCCSUP, Bladder): 8.91 µM
- EC50 [5]: 23.6 µM
- GI50 (TE 125.T, Soft Tissue - Sarcoma, read-out: Cell Count GI50): 17 µM
- IC50 [5]: 23.6 µM
- EC50 [6]: 6.28 µM
- GI50 (TE 381.T, Soft Tissue - Sarcoma, read-out: Cell Count GI50): 6.08 µM
- IC50 [6]: 6.28 µM
- EC50 (TF-1, Leukemia): 6.57 µM
- GI50 (TF-1, Leukemia, read-out: Cell Count GI50): 6.26 µM
- IC50 (TF-1, Leukemia): 6.57 µM
- EC50 (THP-1, Thp1, Leukemia): 12 µM
- GI50 (THP-1, Thp1, Leukemia, read-out: Cell Count GI50): 11.9 µM
- IC50 (THP-1, Thp1, Leukemia): 12 µM
- EC50 (TUR, Lymphoma): 8.98 µM
- GI50 (TUR, Lymphoma, read-out: Cell Count GI50): 8.98 µM
- IC50 (TUR, Lymphoma): 8.98 µM
- EC50 [7]: 4.21 µM
- GI50 (U2OS, Soft Tissue - Osteosarcoma, read-out: Cell Count GI50): 4.2 µM
- IC50 [7]: 4.21 µM
- EC50 (U138-MG, U-138MG, CNS - Glioma): 25 µM
- GI50 (U138-MG, U-138MG, CNS - Glioma, read-out: Cell Count GI50): 24.9 µM
- IC50 (U138-MG, U-138MG, CNS - Glioma): 25 µM
- EC50 (U266B1, Myeloma): 10.1 µM
- GI50 (U266B1, Myeloma, read-out: Cell Count GI50): 9.81 µM
- IC50 (U266B1, Myeloma): 10.1 µM
- EC50 (U-87 MG, CNS - Glioma): 13.8 µM
- GI50 (U-87 MG, CNS - Glioma, read-out: Cell Count GI50): 13.6 µM
- IC50 (U-87 MG, CNS - Glioma): 13.8 µM
- EC50 [8]: 13.9 µM
- GI50 (U-118-MG, U-118 MG, CNS - Glioma, read-out: Cell Count GI50): 13.6 µM
- IC50 [8]: 13.9 µM
- EC50 (UMUC3, UM-UC-3, Bladder): 3.83 µM
- GI50 (UMUC3, UM-UC-3, Bladder, read-out: Cell Count GI50): 3.82 µM
- IC50 (UMUC3, UM-UC-3, Bladder): 3.83 µM
- EC50 [9]: 15.2 µM
- GI50 (VA-ES-BJ, Soft Tissue - Sarcoma, read-out: Cell Count GI50): 15 µM
- IC50 [9]: 15.2 µM
- EC50 [10]: 10.9 µM
- GI50 (WM 266-4, WM-266-4, Skin (Melanoma), read-out: Cell Count GI50): 10.8 µM
- IC50 [10]: 10.9 µM
- EC50 (WiDr, Colon): 12.8 µM
- GI50 (WiDr, Colon, read-out: Cell Count GI50): 12.8 µM
- IC50 (WiDr, Colon): 12.8 µM
- EC50 (Y79, Eye): 5.65 µM
- GI50 (Y79, Eye, read-out: Cell Count GI50): 5.34 µM
- IC50 (Y79, Eye): 5.65 µM
- EC50 (YAPC, Pancreas): 18 µM
- GI50 (YAPC, Pancreas, read-out: Cell Count GI50): 18.2 µM
- IC50 (YAPC, Pancreas): 18.2 µM
- GI50 (strong: Daudi, DOHH-2, GA-10, L-428, ST486, MX1, NALM-6, T47D, CEM-C1, A-673, read-out: GI50): 1.23 to 2.92 µM
